# Experimental data published in US8338428B2, “Methods for administering aripiprazole” (Alkermes, Inc., priority 2003, dated 2012).
# “Also recorded” adds a separate entry of the source.
# Test: Pharmacokinetic evaluation of aripiprazole in rats following single subcutaneous doses of aripiprazole formulations
# Format: in vivo, Sprague-Dawley rats
# Settings: rat, single SC injection of 10, 20 or 30 mg bulk drug in 0.75 mL diluent (3% CMC, 0.1% Tween 20, 0.9% NaCl); plasma 2 h to 28 d; versus microspheres with 30% or 50% load
# Description: Experimental: Pharmacokinetic Evaluation of Aripiprazole in Rats Following Administration of Single Subcutaneous Doses of Aripiprazole Formulations. Species and Strain: Sprague-Dawley rats. Male; 450 +/−50 grams. Study Groups: 5 Groups, 15 subjects • Group A: three rats injected once SC with 10 mg of Aripiprazole. • Group B: three rats injected once SC with 20 mg of Aripiprazole. • Group C: three rats injected once SC with 30 mg of Aripiprazole. • Group D: three rats injected once SC with ˜67 mg of microparticles. • Group E: three rats injected once SC with ˜40 mg of microparticles. […] Route of Injection: Subcutaneous (SC) injection into the interscapular region. Injection Vehicle: Aqueous diluent containing 3% CMC (low viscosity), 0.1% Tween 20, in 0.9% NaCl and water. Dose Volumes: Suspensions were formulated as follows: • Group A: 10 mg powder in 0.75 mL Diluent • Group B: 20 mg powder in 0.75 mL Diluent • Group C: 30 mg powder in 0.75 mL Diluent • Group D: ˜67 mg microparticles in 0.75 mL Diluent • Group E: 40 mg microparticles in 0.75 mL Diluent Blood Collection: Blood samples were collected via a lateral tail vein after anesthesia with Halothane. A syringe without an anticoagulant was used for the blood collection, then the whole blood was transferred to tubes containing K2 EDTA and mixing beads (MICROTAINER®; MFG# BD365974). […]
smiles,measurement,value
"O=C1CCc2ccc(OCCCCN3CCN(c4cccc(Cl)c4Cl)CC3)cc2N1 [aripiprazole, Aripiprazole]",plasma release profile of SC bolus injection compared with aripiprazole-containing PLGA microspheres,substantially the same; also recorded: extended release profile similar to that obtained by the injection of a poly lactide-co-glycolide microsphere formulation
